Assay results as given in the supplement of paper PMC10307832.

Legend:
Assay in all cases: relative viability (nuclei count vs DMSO), 5 days (fraction); higher = more cells survive
[1] = compound: C1CNCCC1C2=CC(=NN2)C3=CC=NC=C3 + CCNC(=O)c1noc(-c2cc(C(C)C)c(O)cc2O)c1-c1ccc(CN2CCOCC2)cc1 [Luminespib] (partner 0.01 µM)
Outline: (§1)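 Values are medians from duplicate plates. Each reflects relative viability, defined as the nuclei count of treated wells over that of vehicle wells. Lung cancer cell lines in 1536-well plates were pin-tool dosed one day after seeding with one drug alone or with a fixed anchor-drug dose plus five library-drug doses (not always all listed) in √10 steps, then fixed, stained and imaged at 4× after 5 days.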

[2] = compound: C[C@@H](N)c1ccc(C(=O)Nc2ccnc3[nH]ccc23)cc1 + Nc1ncn([C@H]2C[C@H](O)[C@@H](CO)O2)c(=O)n1 [Decitabine] (partner 2 µM)
Outline: as §1

[3] = compound: C[C@@H](N)c1ccc(C(=O)Nc2ccnc3[nH]ccc23)cc1 + O=C(CCCCCCC(=O)Nc1ccccc1)NO [Vorinostat] (partner 1 µM)
Outline: as §1

Tanzisertib + Bortezomib = compound: O[C@H]1CC[C@H](Nc2ncc3nc(Nc4c(F)cc(F)cc4F)n([C@H]4CCOC4)c3n2)CC1 [Tanzisertib] + CC(C)C[C@H](NC(=O)[C@H](Cc1ccccc1)NC(=O)c1cnccn1)B(O)O [Bortezomib] (partner 0.002 µM)
Outline: as §1

Cell Line	relative viability ([1]; first compound 0.08 µM)	relative viability ([1]; first compound 0.8 µM)	relative viability ([1]; first compound 2.53 µM)	relative viability ([1]; first compound 8 µM)	relative viability ([2]; first compound 0.04 µM)	relative viability ([2]; first compound 0.1265 µM)	relative viability ([2]; first compound 0.4 µM)	relative viability ([2]; first compound 1.265 µM)	relative viability ([2]; first compound 4 µM)	relative viability ([3]; first compound 0.04 µM)	relative viability ([3]; first compound 0.1265 µM)	relative viability ([3]; first compound 0.4 µM)	relative viability ([3]; first compound 1.265 µM)	relative viability ([3]; first compound 4 µM)	relative viability (Tanzisertib + Bortezomib; first compound 0.08 µM)	relative viability (Tanzisertib + Bortezomib; first compound 0.253 µM)	relative viability (Tanzisertib + Bortezomib; first compound 0.8 µM)	relative viability (Tanzisertib + Bortezomib; first compound 2.53 µM)	relative viability (Tanzisertib + Bortezomib; first compound 8 µM)
NCI-H647	0.151	0.21	0.157	0.101	0.314	0.324	0.419	0.521	0.335	0.472	0.623	0.551	0.613	0.463	1.03	1.01	1	1.14	1.02
NCI-H650	0.65	0.705	0.958	0.744	–	0.3	0.369	–	0.3	–	0.507	0.325	–	0.381	0.868	1	0.87	0.945	0.366
NCI-H661	0.93	0.915	0.934	0.848	0.51	0.59	0.573	0.493	0.504	0.859	0.802	0.845	0.826	0.886	0.859	0.64	0.874	0.567	0.795
NCI-H727	0.27	0.693	0.453	0.36	1	1.03	0.942	0.764	0.908	1.6	1.22	1.52	1.57	1.49	1	0.762	1.04	0.806	0.64
NCI-H838	0.315	0.355	0.281	0.302	0.482	0.47	0.466	0.415	0.3	0.763	0.657	0.583	0.41	0.307	1.24	0.971	0.807	0.778	0.643
NCI-H1355	0.64	0.818	0.696	0.766	0.343	0.332	0.317	0.306	0.322	0.663	0.626	0.686	0.583	0.57	1.1	1.34	1.23	1.23	1.34
NCI-H1437	1.1	1.16	1.09	1.14	0.526	0.572	0.541	0.602	0.591	0.882	0.874	0.991	1.02	1.03	0.663	0.648	0.479	0.531	0.393
NCI-H1650	0.246	0.209	0.201	0.223	0.379	0.542	0.51	0.431	0.447	0.7	0.663	0.675	0.663	0.648	0.192	0.217	0.201	0.195	0.182
NCI-H1651	0.719	1.11	0.807	0.838	0.648	0.619	0.668	0.661	0.656	0.603	0.526	0.647	0.586	0.561	0.897	0.917	0.925	0.875	0.853
NCI-H1666	0.921	1.11	1.05	1.01	0.83	0.768	0.865	0.781	0.855	1.1	1.05	1.22	1.5	1.31	0.75	0.732	1.03	0.872	0.909
NCI-H1734	0.183	0.201	0.195	0.219	0.477	0.506	0.53	0.52	0.462	0.701	0.791	0.823	0.576	0.806	1.04	0.936	0.856	1.02	0.881
NCI-H1755	0.301	–	0.417	0.64	0.728	0.728	0.712	0.76	0.684	0.672	0.737	0.75	0.811	0.826	1.03	0.995	0.986	0.957	0.942
NCI-H1915	0.746	0.876	0.791	0.734	–	0.265	0.242	–	0.235	–	0.546	0.547	–	0.462	0.992	1.07	1	0.978	0.989
NCI-H1975	0.166	0.214	0.193	0.254	0.365	0.381	0.426	0.356	0.28	0.734	0.649	0.667	0.609	0.584	0.428	0.467	0.371	0.401	0.347
NCI-H1993	0.748	0.918	0.79	0.981	0.649	0.603	–	0.636	0.69	0.772	1.02	–	0.811	0.718	1.14	1.07	1.12	1.04	0.857
